Measured values published in patent US10494380B2, “Nitrogen-containing tricyclic derivatives having HIV replication inhibitory activity” (priority 2015, dated 2019).
pEC50: −log10 of the molar value. Like-named read-outs stand apart in the source and are kept apart here.

Tests used:
Assay type in all cases: cell-based
HIV (HTLV-IIIB strain) = test: HIV replication inhibition assay (Test Example 1; MT-4 cells, MTT); settings: Human immunodeficiency virus 1, MT4, 96 h, HIV (HTLV-IIIB strain), MT-4 cells, MTT, four days; for pEC50: read-out: EC50; for EC90: read-out: EC90
Description: HIV (HTLV-IIIB strain) persistent infected human T cell strain Molt-4 clone8 was cultured in RPMI-1640 medium supplemented with 10% fetal bovine serum and the supernatant was filtered, then the virus titer was measured and stored at −80° C. Each anti-human immunodeficiency virus active substance was diluted with the above culture medium to the designated concentration, which was dispensed into 96-well microtiter plate by 50 μL. Next, 100 μL of MT-4 cell suspension (2.5×10^4 cells) was dispensed into each well, then 50 μl of the above HIV-containing supernatant diluted with the above culture medium was added thereto (60 pfu (plaque forming unit)).
Cell mixture was cultured at 37° C. in CO2 incubator for four days, then 30 μL of MTT (3-(4,5-dimethylthiazole-2-yl)-2,5-diphenyltetrazolyum bromide) reagent (5 mg/mL in PBS) was added to all wells followed by incubation for 1 hour. In this step, MTT was reduced to insoluble formazan in living cells. To elute generated formazan 150 μL of the culture supernatant was removed from all wells, then 150 μL of cell lysis solution (10% Triton X-100 and 0.4% (v/v)-HCl containing isopropanol) was added thereto, followed by shaking with a plate mixer. The formazan was measured with micro plate reader at OD: 560 nm and 690 nm (reference wavelength) and the result was compared with the reference wells. EC50 and EC90 mean the compound concentration at which cytotoxicity caused by virus infection is inhibited 50% and 90%, respectively.

HIV = settings: EC50 in the presence of human serum (25%) versus without human serum, MT-4 cells
Method in brief: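 Compound is preincubated 1 h at room temperature with human serum, or with medium alone as the serum-free control. MT-4 cells infected with HIV (1 h, 37° C) are added and cultured 4 days. EC50 is determined with and without serum; their ratio gives the potency shift.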

[1] = system: T125A mutant virus (HIV-1 NL-432 recombinant molecular clone, IN gene); test: HIV replication inhibition assay against integrase 124/125 mutant virus (Test Example 2)
Method in brief: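 MT-4 cells (2.5×10^4 per well) infected with 60 pfu of 293T-derived HIV-1 NL-432 clone carrying integrase 124/125 point mutations, in presence of compound, cultured 4 days at 37 °C. Viability by MTT formazan at 560/690 nm; EC50 = concentration inhibiting 50% of virus-induced cytotoxicity.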

[2] = T125A mutant virus (HIV-1 NL-432 IN gene), MT-4 cells, MTT, read-out: EC50 against T125A mutant virus
[3] = Human immunodeficiency virus 1, MT4, read-out: EC50 against T125A mutant virus, T125A mutant virus (HIV-1 NL-432 IN gene), MT-4 cells, MTT

COCc1cc2c(-c3ccc(C)cc3)c([C@H](OC(C)(C)C)C(=O)O)c(C)c3c2n1CCN3C [Compound I-011]
pEC50 (HIV (HTLV-IIIB strain)): 7.80
EC90 (HIV (HTLV-IIIB strain)): 24 nM
Potency shift value (HIV): 21

Cc1ccc(-c2c([C@H](OC(C)(C)C)C(=O)O)c(C)c3c4c2cc(COCc2ccccc2)n4CCN3C)cc1 [Compound I-005]
pEC50 (HIV (HTLV-IIIB strain)): 7.51
EC90 (HIV (HTLV-IIIB strain)): 46 nM
Potency shift value (HIV): 7.8

Cc1ccc(-c2c([C@H](OC(C)(C)C)C(=O)O)c(C)c3c4c2cc(C)n4CCN3)cc1 [Compound I-015]
pEC50 (HIV (HTLV-IIIB strain)): 7.57
EC90 (HIV (HTLV-IIIB strain)): 40 nM
Potency shift value (HIV): 11

CCCc1cc2c(-c3ccc(C)cc3)c([C@H](OC(C)(C)C)C(=O)O)c(C)c3c2n1CCN3C [Compound I-013]
pEC50 (HIV (HTLV-IIIB strain)): 8.01
EC90 (HIV (HTLV-IIIB strain)): 15 nM
Potency shift value (HIV): 49

Cc1ccc(-c2c([C@H](OC(C)(C)C)C(=O)O)c(C)c3c4c2cc(C)n4CCN3S(=O)(=O)CCO)cc1 [Compound I-210]
Potency shift value (HIV): 5.4
pEC50 [1, 2]: 7.19

CC(=O)NCCOc1cnc(N2CCn3c(C)cc4c(-c5ccc(C)cc5)c([C@H](OC(C)(C)C)C(=O)O)c(C)c2c43)nc1 [Compound I-295]
Potency shift value (HIV): 5.3
pEC50 [1, 3]: 7.21

Cc1ccc(-c2c([C@H](OC(C)(C)C)C(=O)O)c(C)c3c4c2cc(C)n4CCN3c2ncc(OCCCO)cn2)cc1 [Compound I-284]
Potency shift value (HIV): 17
pEC50 [1, 3]: 8.44

Cc1ccc(-c2c([C@H](OC(C)(C)C)C(=O)O)c(C)c3c4c2c(Cl)c(C)n4CCN3C)cc1 [Compound I-002]
pEC50 (HIV (HTLV-IIIB strain)): 8.66
EC90 (HIV (HTLV-IIIB strain)): 3.5 nM
pEC50 [1, 3]: 7.68

Cc1ccc(-c2c([C@H](OC(C)(C)C)C(=O)O)c(C)c3c4c2cc(C)n4CC(=O)N3C)cc1 [Compound I-020]
pEC50 (HIV (HTLV-IIIB strain)): 8.02
EC90 (HIV (HTLV-IIIB strain)): 12 nM
Potency shift value (HIV): 41

Cc1c([C@H](OC(C)(C)C)C(=O)O)c(-c2ccc(Cl)cc2)c2cc(C)n3c2c1N(C)CC3c1ccccc1 (stereo partly drawn) [Compound I-332]
Potency shift value (HIV): 25
pEC50 ([1]; read-out: EC50 against T125A mutant virus, T125A mutant virus (HIV-1 NL-432 IN gene), MT-4 cells, MTT): 7.89

Cc1c([C@H](OC(C)(C)C)C(=O)O)c(-c2ccc(Cl)cc2)c2cc(C)n3c2c1OC(C)C3 (stereo partly drawn) [Compound I-195]
Potency shift value (HIV): 12
pEC50 [1, 3]: 7.82

Cc1ccc(-c2c([C@H](OC(C)(C)C)C(=O)O)c(C)c3c4c2cc(C)n4CCN3c2ncc(Oc3nccc4ccccc34)cn2)cc1 [Compound I-344]
Potency shift value (HIV): 33
pEC50 [1, 3]: 7.77

Cc1c([C@H](OC(C)(C)C)C(=O)O)c(-c2ccc(Cl)cc2)c2cc(C)n3c2c1N(C1=NCCO1)CC3 [Compound I-180]
Potency shift value (HIV): 7.8
pEC50 [1, 3]: 7.89

Cc1c([C@H](OC(C)(C)C)C(=O)O)c(-c2ccc(Cl)cc2)c2cc(C)n3c2c1N(C(=O)Nc1ccccc1Br)CC3 [Compound I-232]
Potency shift value (HIV): 8.6
pEC50 [1, 3]: 7.47

COc1ccc(N2CCn3c(C)cc4c(-c5ccc(C)cc5)c([C@H](OC(C)(C)C)C(=O)O)c(C)c2c43)nn1 [Compound I-328]
Potency shift value (HIV): 4.2
pEC50 [1, 3]: 7.29

Cc1ccc(-c2c([C@H](OC(C)(C)C)C(=O)O)c(C)c3c4c2cc(CO)n4CCN3C)cc1 [Compound I-022]
pEC50 (HIV (HTLV-IIIB strain)): 7.77
EC90 (HIV (HTLV-IIIB strain)): 25 nM
Potency shift value (HIV): 4.5

Cc1ccc(-c2c([C@H](OC(C)(C)C)C(=O)O)c(C)c3c4c2cc(C)n4CCN3CCNC2CC2)cc1 [Compound I-028]
pEC50 (HIV (HTLV-IIIB strain)): 7.13
EC90 (HIV (HTLV-IIIB strain)): 93 nM
Potency shift value (HIV): 2.5

Cc1c([C@H](OC(C)(C)C)C(=O)O)c(-c2ccc(Cl)cc2)c2cc(C)n3c2c1N(c1ncc(COCCN(C)C)cn1)CC3 [Compound I-315]
Potency shift value (HIV): 3.9
pEC50 [1, 3]: 7.10

Cc1ccc(-c2c([C@H](OC(C)(C)C)C(=O)O)c(C)c3c4c2cc(C)n4CCN3c2nc(C)ns2)cc1 [Compound I-329]
Potency shift value (HIV): 15
pEC50 [1, 3]: 7.72

Cc1ccc(-c2c([C@H](OC(C)(C)C)C(=O)O)c(C)c3c4c2cc(C)n4CCN3CC(F)F)cc1 [Compound I-281]
Potency shift value (HIV): 23
pEC50 [1, 3]: 7.77

Cc1ccc(-c2c([C@H](OC(C)(C)C)C(=O)O)c(C)c3c4c2cc(C)n4CCN3c2ccc3ncccc3n2)cc1 [Compound I-289]
Potency shift value (HIV): 15
pEC50 [1, 3]: 7.46

Cc1ccc(-c2c(C(OC(C)(C)C)C(=O)O)c(C#N)c3c4c2cc(C)n4CCN3C)cc1 (stereo not drawn) [Compound I-186]
Potency shift value (HIV): 15
pEC50 [1, 3]: 7.70

Cc1c([C@H](OC(C)(C)C)C(=O)O)c(-c2ccc(Cl)cc2)c2cc(C)n3c2c1N(c1ncc(O)cn1)CC3 [Compound I-183]
Potency shift value (HIV): 7.6
pEC50 [1, 3]: 7.51

Cc1c([C@H](OC(C)(C)C)C(=O)O)c(-c2ccc(Cl)cc2)c2cc(C)n3c2c1N(C(=O)C(=O)N(C)C)[C@H](C)C3 [Compound I-169]
Potency shift value (HIV): 30
pEC50 [1, 3]: 7.30

COc1cnc(N2CCn3c(C)cc4c(-c5ccccc5)c([C@H](OC(C)(C)C)C(=O)O)c(C)c2c43)nc1 [Compound I-231]
Potency shift value (HIV): 22
pEC50 [1, 3]: 8.00

Cc1ccc(-c2c([C@H](OC(C)(C)C)C(=O)O)c(Cl)c3c4c2cc(C)n4CCN3c2nc3c(s2)CN(C)CC3)cc1 [Compound I-353]
Potency shift value (HIV): 10
pEC50 [1, 3]: 7.82

Cc1ccc(-c2c([C@H](OC(C)(C)C)C(=O)O)c(C)c3c4c2cc(C)n4CCN3c2nc3ccccc3n2C)cc1 [Compound I-251]
Potency shift value (HIV): 9.6
pEC50 [1, 3]: 8.38

Cc1ccc(-c2c([C@H](OC(C)(C)C)C(=O)O)c(C)c3c4c2cc(C)n4CCN3CCOCC(F)F)cc1 [Compound I-206]
Potency shift value (HIV): 9.7
pEC50 [1, 2]: 7.15

Cc1ccc(-c2c([C@H](OC(C)(C)C)C(=O)O)c(C)c3c4c2cc(C)n4CCN3c2cccc(F)n2)cc1 [Compound I-286]
Potency shift value (HIV): 14
pEC50 [1, 3]: 7.82

C=Cc1cnc(N2CCn3c(C)cc4c(-c5ccc(Cl)cc5)c([C@H](OC(C)(C)C)C(=O)O)c(C)c2c43)nc1 [Compound I-299]
Potency shift value (HIV): 20
pEC50 [1, 3]: 8.29

Cc1c(-c2c([C@H](OC(C)(C)C)C(=O)O)c(C)c3c4c2cc(C)n4CCN3CCN(C)C)cc(F)c2c1CCCO2 [Compound I-310]
Potency shift value (HIV): 1.2
pEC50 [1, 3]: 7.17

Cc1ccc(-c2c([C@H](OC(C)(C)C)C(=O)O)c(C)c3c4c2ccn4CCN3C)cc1 [Compound I-004]
pEC50 (HIV (HTLV-IIIB strain)): 8.39
EC90 (HIV (HTLV-IIIB strain)): 6 nM
pEC50 [1, 3]: 7.32

Cc1ccc(-c2c([C@H](OC(C)(C)C)C(=O)O)c(C)c3c4c2cc(C)n4CCN3CCN2CCC(F)(F)C2)cc1 [Compound I-162]
Potency shift value (HIV): 7.5
pEC50 [1, 3]: 7.46

Cc1ccc(-c2c([C@H](OC(C)(C)C)C(=O)O)c(C)c3c4c2cc(C)n4CCN3c2ncc(OCCO)cn2)cc1 [Compound I-283]
Potency shift value (HIV): 9.5
pEC50 [1, 3]: 7.92

Cc1ccc(-c2c([C@H](OC(C)(C)C)C(=O)O)c(C)c3c4c2cc(C)n4CCN3c2ncc(N3C[C@@H](C)O[C@@H](C)C3)cn2)cc1 [Compound I-316]
Potency shift value (HIV): 17
pEC50 [1, 3]: 8.18

Cc1c([C@H](OC(C)(C)C)C(=O)O)c(-c2ccc(Cl)cc2)c2cc(C)n3c2c1N(Cc1cnccn1)CC3 [Compound I-152]
Potency shift value (HIV): 6.9
pEC50 [1, 3]: 7.96
